US12337000B2, “Therapeutic modulators of the reverse mode of ATP synthase” (priority 2017, dated 2025)

Key:
[1] = Human pharmacokinetics of oral almitrine dimesylate; format: in vivo; details: 0.6*17, after 200 mg oral dose
[2] = biological target: F1F0 ATP synthesis and hydrolysis (Homo sapiens, UniProt P06576+P25705); details: isolated mitochondria, no matter how great the concentration [114]; cited from earlier work
[3] = cited from earlier work
[4] = humans [121]; cited from earlier work
[5] = 30 year pharmacovigilance survey in France, oral, multi-year use [120]

C=CCNc1nc(NCC=C)nc(N2CCN(C(c3ccc(F)cc3)c3ccc(F)cc3)CC2)n1 [almitrine]
corresponding tissue concentration (assuming uniform) [1]: ~10 µM | maximal decrease in F1F0 ATP synthesis and hydrolysis [2]: ~60% | peripheral neuropathy [3, 5]: 2,304 cases | weight loss [3, 5]: 795 cases | share of presenting cases categorised as serious [3, 120]: < 10% | patients with reversible lactic acidosis and hepatic dysfunction ([3]; intravenous 459±155 mg within 24 hours, 25 patients [127]): 30% | mean onset of adverse reactions ([3]; oral, chronic use [120]): 11 months | volume of distribution (VD) [4]: 17 L/kg
